Structures are written as SMILES.

In experiment [1] the target is Mitogen-activated protein kinase kinase kinase kinase 5 (Homo sapiens) (UniProt Q9Y4K4). Briefly: Binding affinity to wild type partial length human MAP4K5 (M1 to P297) expressed in Bacterial expression system assessed as residual activity at 100 nM measured by Kinomescan assay relative to control.
For experiment [2], the target named is Mitogen-activated protein kinase kinase kinase 20 (Homo sapiens) (UniProt Q9NYL2). The experiment can be described thus: Binding affinity to wild type partial length human ZAK (M1 to L331) expressed in bacterial expression system assessed as residual activity at 100 nM measured by Kinomescan assay.
Sequence of Mitogen-activated protein kinase kinase kinase 20 (Homo sapiens) (Q9NYL2 2-800 limits assumed): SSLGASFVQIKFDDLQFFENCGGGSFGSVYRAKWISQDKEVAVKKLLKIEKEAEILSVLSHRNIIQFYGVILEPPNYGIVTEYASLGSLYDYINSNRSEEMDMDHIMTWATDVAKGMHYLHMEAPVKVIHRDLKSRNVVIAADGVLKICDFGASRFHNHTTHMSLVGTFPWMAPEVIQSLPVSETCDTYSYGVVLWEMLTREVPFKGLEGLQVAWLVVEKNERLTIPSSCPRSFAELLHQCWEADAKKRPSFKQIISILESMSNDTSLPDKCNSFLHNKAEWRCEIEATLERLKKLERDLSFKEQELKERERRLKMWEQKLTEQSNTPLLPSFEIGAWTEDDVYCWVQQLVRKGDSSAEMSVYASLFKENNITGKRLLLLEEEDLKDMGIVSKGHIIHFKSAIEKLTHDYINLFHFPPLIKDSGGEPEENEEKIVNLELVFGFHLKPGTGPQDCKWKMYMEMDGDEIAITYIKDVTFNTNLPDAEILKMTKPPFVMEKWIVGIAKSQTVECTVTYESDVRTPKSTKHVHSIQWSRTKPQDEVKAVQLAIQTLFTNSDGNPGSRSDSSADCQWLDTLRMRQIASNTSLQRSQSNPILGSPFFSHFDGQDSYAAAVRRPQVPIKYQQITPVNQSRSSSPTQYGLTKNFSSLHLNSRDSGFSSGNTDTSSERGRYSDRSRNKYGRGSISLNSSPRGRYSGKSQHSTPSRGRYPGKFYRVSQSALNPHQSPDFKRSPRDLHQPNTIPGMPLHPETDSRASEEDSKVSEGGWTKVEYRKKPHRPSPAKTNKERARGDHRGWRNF
The target in experiment [3] is T1, Dual specificity mitogen-activated protein kinase kinase 7 (Homo sapiens) (UniProt O14733).
T1 sequence (whole entry): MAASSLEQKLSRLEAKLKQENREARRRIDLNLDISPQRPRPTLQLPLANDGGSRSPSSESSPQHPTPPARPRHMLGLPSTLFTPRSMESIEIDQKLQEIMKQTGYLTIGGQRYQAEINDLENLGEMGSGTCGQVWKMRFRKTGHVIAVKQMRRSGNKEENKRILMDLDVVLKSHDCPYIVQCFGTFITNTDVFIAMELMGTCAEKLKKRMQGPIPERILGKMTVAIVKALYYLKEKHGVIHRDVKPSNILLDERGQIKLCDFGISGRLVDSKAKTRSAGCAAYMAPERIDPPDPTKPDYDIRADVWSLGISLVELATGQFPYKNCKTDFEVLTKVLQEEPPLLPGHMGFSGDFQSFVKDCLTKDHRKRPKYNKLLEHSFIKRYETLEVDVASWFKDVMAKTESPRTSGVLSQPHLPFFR
The experiment can be described thus: Binding affinity to wild type full length human MKK7 (M1 to R419 residues) expressed in mammalian expression system assessed as residual activity at 100 nM measured by Kinomescan assay.

Sequence of Mitogen-activated protein kinase kinase kinase kinase 5 (Homo sapiens) (Q9Y4K4 whole entry, looked up): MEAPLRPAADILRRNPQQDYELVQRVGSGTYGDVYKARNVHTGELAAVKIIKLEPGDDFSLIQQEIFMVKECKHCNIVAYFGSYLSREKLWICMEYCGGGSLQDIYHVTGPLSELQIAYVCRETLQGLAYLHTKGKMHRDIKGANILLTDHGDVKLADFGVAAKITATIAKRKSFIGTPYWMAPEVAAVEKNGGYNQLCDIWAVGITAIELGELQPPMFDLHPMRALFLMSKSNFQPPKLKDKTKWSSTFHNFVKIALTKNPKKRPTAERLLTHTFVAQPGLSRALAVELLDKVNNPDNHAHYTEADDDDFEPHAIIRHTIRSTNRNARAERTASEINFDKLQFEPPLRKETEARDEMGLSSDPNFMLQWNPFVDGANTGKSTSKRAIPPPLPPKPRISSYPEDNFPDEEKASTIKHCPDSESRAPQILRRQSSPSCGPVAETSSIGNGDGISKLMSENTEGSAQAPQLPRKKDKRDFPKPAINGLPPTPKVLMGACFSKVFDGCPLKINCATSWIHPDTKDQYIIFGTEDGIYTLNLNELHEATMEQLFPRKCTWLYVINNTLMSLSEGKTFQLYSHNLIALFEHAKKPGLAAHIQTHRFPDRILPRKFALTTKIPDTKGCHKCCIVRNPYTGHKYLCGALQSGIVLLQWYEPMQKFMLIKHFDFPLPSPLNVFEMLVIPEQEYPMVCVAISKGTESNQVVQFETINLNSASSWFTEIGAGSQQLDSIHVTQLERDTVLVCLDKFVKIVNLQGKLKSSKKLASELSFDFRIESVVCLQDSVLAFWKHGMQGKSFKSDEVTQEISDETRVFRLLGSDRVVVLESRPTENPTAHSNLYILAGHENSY

Turning to `CCCS(=O)(=O)Nc1cccc(C(=O)c2c[nH]c3ncc(-c4ccc(Cl)cc4)cc23)c1Cl`, the Activity in experiment [1] stood at 79%; in experiment [2], 68%; in experiment [3], 100%.

Take `CCCS(=O)(=O)Nc1ccc(F)c(C(=O)c2c[nH]c3ncc(-c4ccccc4Cl)cc23)c1F`: the results for the Activity in experiment [1], in experiment [2] and in experiment [3] were 79%, 7.6% and 100%, respectively.

Consider `O=C(c1c(F)ccc(NS(=O)(=O)CCCF)c1F)c1c[nH]c2ncc(-c3ccc(Cl)cc3)cc12`, for which the Activity in experiment [1] was 80%; in experiment [2], 1.4%; in experiment [3] it was 100%.

`CCCS(=O)(=O)Nc1ccc(F)c(C(=O)c2c[nH]c3ncc(-c4ccc(OC)cc4)cc23)c1F`: the Activity in experiment [1] is 38%; in experiment [3], 70%.

For the molecule `CCCS(=O)(=O)Nc1ccc(F)c(C(=O)c2c[nH]c3ncc(-c4cccs4)cc23)c1F`, the Activity is 48% in experiment [1], 2.9% in experiment [2] and 98% in experiment [3].

In the case of `CCCS(=O)(=O)Nc1ccc(F)c(C(=O)c2c[nH]c3ncc(-c4ccc(OC)cc4F)cc23)c1F`, the Activity came to 6% in experiment [2] and 85% in experiment [3].

Consider `CCCS(=O)(=O)Nc1ccc(F)c(C(=O)c2c[nH]c3ncc(-c4ccc(C)cc4)cc23)c1F`, for which the Activity amounted to 28% in experiment [1], 0.85% in experiment [2] and 89% in experiment [3].

`O=C(c1c(F)ccc(NS(=O)(=O)Cc2ccccc2F)c1F)c1c[nH]c2ncc(-c3ccc(Cl)cc3)cc12`: the values for the Activity in experiment [2] and in experiment [3] were 23% and 97%, respectively.

As to `O=C(c1c(F)ccc(NS(=O)(=O)Cc2ccc(F)cc2)c1F)c1c[nH]c2ncc(-c3ccc(Cl)cc3)cc12`, the Activity came to 61% in experiment [2] and 100% in experiment [3].

On to `Cc1cc(F)ccc1-c1cnc2[nH]cc(C(=O)c3cccc(NS(=O)(=O)Cc4ccccc4)c3F)c2c1`, for which the values for the Activity in experiment [1], in experiment [2] and in experiment [3] were 97%, 90% and 98%, respectively.

In the case of `CCCS(=O)(=O)Nc1ccc(F)c(C(=O)c2c[nH]c3ncc(-c4ccc(OC)c(OC)c4)cc23)c1F`, the Activity in experiment [1] was 14%; in experiment [2] it was 18%; in experiment [3], 84%.

As for `Cc1cccc(CS(=O)(=O)Nc2ccc(F)c(C(=O)c3c[nH]c4ncc(-c5ccc(Cl)cc5)cc34)c2F)c1`, the Activity in experiment [2] is 64%; in experiment [3], 100%.

For `O=C(c1c(F)ccc(NS(=O)(=O)CCC(F)(F)F)c1F)c1c[nH]c2ncc(-c3ccc(Cl)cc3)cc12`, the results for the Activity in experiment [1], in experiment [2] and in experiment [3] were 54%, 3.5% and 100%, respectively.

As to `CCCC(=O)Nc1ccc(F)c(C(=O)c2c[nH]c3ncc(-c4ccc(Cl)cc4)cc23)c1F`, the figures for the Activity in experiment [1], in experiment [2] and in experiment [3] were 91%, 78% and 94%, respectively.

Take `O=C(c1c(F)ccc(NS(=O)(=O)c2ccccc2)c1F)c1c[nH]c2ncc(-c3ccc(Cl)cc3)cc12`: the results for the Activity in experiment [1], in experiment [2] and in experiment [3] were 83%, 4.9% and 83%, respectively.

For the molecule `C#Cc1cnc2[nH]cc(C(=O)c3c(F)ccc(NS(=O)(=O)CCC)c3F)c2c1`, the Activity is 89% in experiment [1], 1.4% in experiment [2] and 100% in experiment [3].

On to `CCCS(=O)(=O)Nc1ccc(F)c(C(=O)c2c[nH]c3ncc(-c4cnc(OC)nc4)cc23)c1F`, for which the Activity in experiment [1] worked out at 86%; in experiment [2], 8.9%; in experiment [3], 84%.

As to `Oc1ccc(-c2ncnc3[nH]c4ccc(O)cc4c23)cc1`, the Activity came out at 92% in experiment [1], 84% in experiment [2] and 100% in experiment [3].

In the case of `CCCS(=O)(=O)Nc1ccc(F)c(C(=O)c2c[nH]c3ncc(-c4cncnc4)cc23)c1F`, the Activity in experiment [1] amounted to 80%; in experiment [2] it was 3.5%; in experiment [3], 81%.

Consider `CCCS(=O)(=O)Nc1ccc(F)c(C(=O)c2c[nH]c3ncc(-c4ccc(OC)cc4C)cc23)c1F`, for which the Activity in experiment [2] was determined as 13%; in experiment [3], 97%.

On to `CCCS(=O)(=O)Nc1ccc(F)c(C(=O)c2c[nH]c3ncc(-c4ccc(F)cc4C)cc23)c1F`, for which the Activity turned out to be 100% in experiment [1], 14% in experiment [2] and 100% in experiment [3].

In the case of `CCCS(=O)(=O)Nc1ccc(F)c(C(=O)c2c[nH]c3ncc(-c4cccc(Cl)c4)cc23)c1F`, the Activity amounted to 2.2% in experiment [2] and 85% in experiment [3].

For the molecule `Cc1ccc(CS(=O)(=O)Nc2ccc(F)c(C(=O)c3c[nH]c4ncc(-c5ccc(Cl)cc5)cc34)c2F)cc1`, the Activity was determined as 87% in experiment [2] and 90% in experiment [3].

Consider `COCCS(=O)(=O)Nc1ccc(F)c(C(=O)c2c[nH]c3ncc(-c4ccc(Cl)cc4)cc23)c1F`, for which the results for the Activity in experiment [1], in experiment [2] and in experiment [3] were 100%, 58% and 75%, respectively.

In the case of `CCCCCCS(=O)(=O)Nc1ccc(F)c(C(=O)c2c[nH]c3ncc(-c4ccc(Cl)cc4)cc23)c1F`, the figures for the Activity in experiment [1], in experiment [2] and in experiment [3] were 99%, 73% and 81%, respectively.

As to `CCS(=O)(=O)Nc1ccc(F)c(C(=O)c2c[nH]c3ncc(-c4ccc(Cl)cc4)cc23)c1F`, the values for the Activity in experiment [1], in experiment [2] and in experiment [3] were 82%, 8.3% and 89%, respectively.

For `CCCS(=O)(=O)Nc1ccc(F)c(C(=O)c2c[nH]c3ncc(-c4ccc(F)cc4F)cc23)c1F`, the Activity in experiment [2] was 5.9%; in experiment [3] it was 93%.

Consider `CCCS(=O)(=O)Nc1ccc(F)c(C(=O)c2c[nH]c3ncc(-c4ccccc4C)cc23)c1F`, for which the Activity in experiment [1] stood at 67%; in experiment [2], 6.9%; in experiment [3] it was 100%.

For the molecule `CCCS(=O)(=O)Nc1ccc(F)c(C(=O)c2c[nH]c3ncc(-c4cc5c(cc4Cl)OCO5)cc23)c1F`, the Activity in experiment [1] came out at 99%; in experiment [2], 26%; in experiment [3], 100%.

In the case of `CCCS(=O)(=O)Nc1ccc(F)c(C(=O)c2c[nH]c3ncc(-c4ccc5c(c4)OCO5)cc23)c1F`, the Activity in experiment [1] is 76%; in experiment [2] it was 0.45%; in experiment [3], 90%.

As to `O=C(c1cccc(NS(=O)(=O)Cc2ccccc2)c1F)c1c[nH]c2ncc(-c3ccncc3)cc12`, the Activity in experiment [1] was 26%; in experiment [2] it was 0.95%; in experiment [3], 95%.

With `CCCS(=O)(=O)Nc1ccc(F)c(C(=O)c2c[nH]c3ncc(-c4ccc(F)cc4)cc23)c1F`, the figures for the Activity in experiment [1], in experiment [2] and in experiment [3] were 67%, 0.9% and 100%, respectively.

Regarding `CS(=O)(=O)Nc1cccc(C(=O)c2c[nH]c3ncc(-c4ccc(Cl)cc4)cc23)c1F`, the results for the Activity in experiment [1], in experiment [2] and in experiment [3] were 78%, 27% and 81%, respectively.

For the molecule `O=C(c1c(F)ccc(NS(=O)(=O)Cc2cccc(F)c2)c1F)c1c[nH]c2ncc(-c3ccc(Cl)cc3)cc12`, the values for the Activity in experiment [2] and in experiment [3] were 36% and 99%, respectively.

As to `CCCS(=O)(=O)Nc1ccc(F)c(C(=O)c2c[nH]c3ncc(-c4ccccc4F)cc23)c1F`, the values for the Activity in experiment [2] and in experiment [3] were 2.9% and 86%, respectively.

Consider `CCCS(=O)(=O)Nc1cccc(C(=O)c2c[nH]c3ncc(-c4ccc(Cl)cc4)cc23)c1`, for which the Activity is 44% in experiment [1] and 100% in experiment [3].

For the molecule `CCCS(=O)(=O)Nc1cccc(C(=O)c2c[nH]c3ncc(-c4ccc(Cl)cc4)cc23)c1C`, the Activity in experiment [1] was 40%; in experiment [3], 91%.

Values taken from ChEMBL document CHEMBL4813918, “From off-to on-target: New BRAF-inhibitor-template-derived compounds selectively targeting mitogen activated protein kinase kinase 4 (MKK4)” (Eur J Med Chem, 2021).
